Measurements: patent US20250051327A1, “MALT-1 MODULATORS” (EXSCIENTIA AI LIMITED, priority 2020, published 2025)

Columns and labels:
[1] = target: Recombinant human MALT-1 (amino acids 340-824) (Homo sapiens (Human), UniProt Q9UDY8); experiment: MALT-1 inhibition assay (fluorogenic substrate Ac-LRSR-Rh110-DP); assay type: biochemical; conditions: recombinant human MALT-1, substrate Ac-LRSR-Rh110-DP
In short: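 Reactions were started with fluorogenic substrate Ac-LRSR-Rh110-DP (10 μM final) against 3 nM enzyme and kept dark at 25° C for 60 minutes. IC50 values came from 4-parameter logistic fits of percent inhibition calculated from relative fluorescence units.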

[2] = test system: IL-2 secretion by human effector memory T cells (TEM); experiment: Effector memory T cells IL-2 release assay; assay type: cell-based; conditions: T-cell; human CD4+ effector memory T cells, CD3/CD28 bead stimulation, 24 h; read-out: CD4TC IL2 IC50
In short: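 Human CD4+ effector memory T cells from healthy-donor buffy coats were stimulated with anti-CD3/CD28 Dynabeads and exposed to 10 semi-log compound doses (0.1% DMSO) for 24 h at 37 °C. Supernatant IL-2 was measured by HTRF, and IC50 came from a 4-parameter logistic fit to maximal IL-2. Viability was checked by flow cytometry.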

Chain of Recombinant human MALT-1 (amino acids 340-824) (Q9UDY8 340-824): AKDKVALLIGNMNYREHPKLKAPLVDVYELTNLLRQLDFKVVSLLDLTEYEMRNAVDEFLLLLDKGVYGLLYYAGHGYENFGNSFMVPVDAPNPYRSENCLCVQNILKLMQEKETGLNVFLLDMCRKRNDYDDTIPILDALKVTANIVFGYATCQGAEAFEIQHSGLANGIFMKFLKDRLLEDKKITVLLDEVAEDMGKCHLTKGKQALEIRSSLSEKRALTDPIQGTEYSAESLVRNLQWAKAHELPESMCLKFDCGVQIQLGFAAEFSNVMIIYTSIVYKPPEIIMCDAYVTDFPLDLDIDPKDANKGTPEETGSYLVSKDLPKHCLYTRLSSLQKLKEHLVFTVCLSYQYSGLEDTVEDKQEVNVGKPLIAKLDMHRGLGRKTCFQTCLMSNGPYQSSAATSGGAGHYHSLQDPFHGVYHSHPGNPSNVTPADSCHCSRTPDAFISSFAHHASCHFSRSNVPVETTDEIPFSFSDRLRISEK

Row | Structure (SMILES) | IC50 [1] | IC50 [2]
1 | CN(C(=O)Cc1ccccc1O)[C@@H](c1ccc(N2CCCc3c2cnc2cc(Cl)nn32)cc1)C(F)(F)F [CPD0019350, N-[(1S)-1-(4-{4-chloro-2,3,7,10-tetraazatricyclo[7.4.0.0^2,6]trideca-1(9),3,5,7-tetraen-10-yl}phenyl)-2,2,2-trifluoroethyl]-2-(2-hydroxyphenyl)-N-methylacetamide] | 70 nM | 103 nM
2 | CN(C(=O)c1cncn1C)[C@@H](c1ccc(N2CCCc3c2cnc2cc(Cl)nn32)cc1)C(F)(F)F [CPD0019344, N-[(1S)-1-(4-{4-chloro-2,3,7,10-tetraazatricyclo[7.4.0.0^2,6]trideca-1(9),3,5,7-tetraen-10-yl}phenyl)-2,2,2-trifluoroethyl]-N,1-dimethyl-1H-imidazole-5-carboxamide] | 213 nM | 295 nM
3 | CN(C(=O)[C@H]1CC[S@+]([O-])CC1)[C@@H](c1ccc(N2CCC3(CC3)c3c2cnc2cc(Cl)nn32)cc1)C(F)(F)F (relative stereo) [CPD0072779, (1rel-r,4rel-r)-N-[(1S)-1-(4-{4′-chloro-2′,3′,7′,10′-tetraazaspiro[cyclopropane-1,13′-tricyclo[7.4.0.0^2,6]tridecane]-1′(9′),3′,5′,7′-tetraen-10′-yl}phenyl)-2,2,2-trifluoroethyl]-N-methyl-1-oxo-1λ^4-thiane-4-carboxamide] | 57 nM | 33 nM
4 | COC(=O)N1CCC(C(=O)N(C)[C@@H](c2ccc(N3CCCc4c3cnc3cc(Cl)nn43)cc2)C(F)(F)F)CC1 [CPD0073691, methyl 4-{[(1S)-1-(4-{4-chloro-2,3,7,10-tetraazatricyclo[7.4.0.0^2,6]trideca-1(9),3,5,7-tetraen-10-yl}phenyl)-2,2,2-trifluoroethyl](methyl)carbamoyl}piperidine-1-carboxylate] | 101 nM | 149 nM
5 | CN(C(=O)[C@H]1CC[S@@+]([O-])CC1)[C@@H](c1ccc(N2CCC(C)(C)c3c2cnc2cc(F)nn32)cc1)C(F)(F)F (relative stereo) [CPD0072780, (1rel-s,4rel-s)-N-methyl-1-oxo-N-[(1S)-2,2,2-trifluoro-1-(4-{4-fluoro-13,13-dimethyl-2,3,7,10-tetraazatricyclo[7.4.0.0^2,6]trideca-1(9),3,5,7-tetraen-10-yl}phenyl)ethyl]-1λ^4-thiane-4-carboxamide] | 75 nM | 107 nM
6 | CN(C(=O)C1CCS(=O)(=O)CC1)[C@@H](c1ccc(N2CCCc3c2cnc2cc(F)nn32)nc1)C(F)(F)F [CPD0021665, N-methyl-1,1-dioxo-N-[(1S)-2,2,2-trifluoro-1-(6-{4-fluoro-2,3,7,10-tetraazatricyclo[7.4.0.0^2,6]trideca-1(9),3,5,7-tetraen-10-yl}pyridin-3-yl)ethyl]-1λ^6-thiane-4-carboxamide] | 638 nM | 2100 nM
7 | CN(C(=O)CC#N)[C@@H](c1ccc(N2CCCc3c2cnc2cc(Cl)nn32)cc1)C(F)(F)F [CPD0019342, N-[(1S)-1-(4-{4-chloro-2,3,7,10-tetraazatricyclo[7.4.0.0^2,6]trideca-1(9),3,5,7-tetraen-10-yl}phenyl)-2,2,2-trifluoroethyl]-2-cyano-N-methylacetamide] | 170 nM | 96 nM
8 | C[C@H]1CCN(c2ccc([C@H](N(C)C(=O)[C@H]3CC[S@@](=N)(=O)CC3)C(F)(F)F)cc2)c2cnc3cc(Cl)nn3c21 (relative stereo) [CPD0073194, (1rel-s,4rel-s)-N-[(1S)-1-{4-[(13rel-S)-4-chloro-13-methyl-2,3,7,10-tetraazatricyclo[7.4.0.0^2,6]trideca-1(9),3,5,7-tetraen-10-yl]phenyl}-2,2,2-trifluoroethyl]-1-imino-N-methyl-1-oxo-1λ^6-thiane-4-carboxamide] | 20 nM | 51 nM
9 | CN(C(=O)C1CCS(=O)(=O)CC1)[C@@H](c1ccc(N2CCC(C)(C)c3c2cnc2cc(Cl)nn32)nc1)C(F)(F)F [CPD0021562, N-[(1S)-1-(6-{4-chloro-13,13-dimethyl-2,3,7,10-tetraazatricyclo[7.4.0.0^2,6]trideca-1(9),3,5,7-tetraen-10-yl}pyridin-3-yl)-2,2,2-trifluoroethyl]-N-methyl-1,1-dioxo-1λ^6-thiane-4-carboxamide] | 80 nM | 103 nM
10 | CN(C(=O)CC1CCOC1)[C@@H](c1ccc(N2CCCc3c2cnc2cc(Cl)nn32)cc1)C(F)(F)F (stereo partly drawn) [CPD0021874, N-[(1S)-1-(4-{4-chloro-2,3,7,10-tetraazatricyclo[7.4.0.0^2,6]trideca-1(9),3,5,7-tetraen-10-yl}phenyl)-2,2,2-trifluoroethyl]-N-methyl-2-(oxolan-3-yl)acetamide] | 256 nM | 209 nM
11 | C[C@@H]1CCN(c2ccc([C@H](N(C)C(=O)[C@H]3CC[S@@](=N)(=O)CC3)C(F)(F)F)cc2)c2cnc3cc(Cl)nn3c21 (relative stereo) [CPD0073192, (1rel-s,4rel-s)-N-[(1S)-1-{4-[(13rel-R)-4-chloro-13-methyl-2,3,7,10-tetraazatricyclo[7.4.0.0^2,6]trideca-1(9),3,5,7-tetraen-10-yl]phenyl}-2,2,2-trifluoroethyl]-1-imino-N-methyl-1-oxo-1λ^6-thiane-4-carboxamide] | 25 nM | 80 nM
12 | C[C@@H]1CCN(c2ccc([C@H](N(C)C(=O)[C@H]3CC[S@](=N)(=O)CC3)C(F)(F)F)cc2)c2cnc3cc(F)nn3c21 (relative stereo) [CPD0074555, (1rel s, 4rel s)1-imino-N-methyl-1-oxo-N-[(1S)-2,2,2-trifluoro-1-[4-[(13 rel R)-4-fluoro-13-methyl-2,3,7,10-tetrazatricyclo[7.4.0.0^2,6]trideca-1(9),3,5,7-tetraen-10-yl]phenyl]ethyl]thiane-4-carboxamide] | 35 nM | 101 nM
13 | CN(C(=O)[C@H]1CC[S@](=N)(=O)CC1)[C@@H](c1ccc(N2CCC(C)(C)c3c2cnc2cc(Cl)nn32)cc1)C(F)(F)F (relative stereo) [CPD0072785, (1rel-r,4rel-r)-N-[(1S)-1-(4-{4-chloro-13,13-dimethyl-2,3,7,10-tetraazatricyclo[7.4.0.0^2,6]trideca-1(9),3,5,7-tetraen-10-yl}phenyl)-2,2,2-trifluoroethyl]-1-imino-N-methyl-1-oxo-1λ^6-thiane-4-carboxamide] | 76 nM | 51 nM
14 | CN(C(=O)CC1CCNC1)[C@@H](c1ccc(N2CCCc3c2cnc2cc(Cl)nn32)cc1)C(F)(F)F (stereo partly drawn) [CPD0021849, N-[(1S)-1-(4-{4-chloro-2,3,7,10-tetraazatricyclo[7.4.0.0^2,6]trideca-1(9),3,5,7-tetraen-10-yl}phenyl)-2,2,2-trifluoroethyl]-N-methyl-2-(pyrrolidin-3-yl)acetamide] | 203 nM | 558 nM
15 | CC(=O)N(C)[C@@H](c1ccc(N2CCCc3c2cnc2cc(Cl)nn32)cc1)C(F)(F)F [CPD0019349, N-[(1S)-1-(4-{4-chloro-2,3,7,10-tetraazatricyclo[7.4.0.0^2,6]trideca-1(9),3,5,7-tetraen-10-yl}phenyl)-2,2,2-trifluoroethyl]-N-methylacetamide] | 230 nM | 83 nM
16 | CN(C(=O)C1CCCCO1)[C@@H](c1ccc(N2CCCc3c2cnc2cc(Cl)nn32)cc1)C(F)(F)F (stereo partly drawn) [CPD0021569, N-[(1S)-1-(4-{4-chloro-2,3,7,10-tetraazatricyclo[7.4.0.0^2,6]trideca-1(9),3,5,7-tetraen-10-yl}phenyl)-2,2,2-trifluoroethyl]-N-methyloxane-2-carboxamide] | 211 nM | 325 nM
17 | COC[C@]1(C)CCN(c2ccc([C@H](N(C)C(=O)[C@H]3CC[S@@](=N)(=O)CC3)C(F)(F)F)cc2)c2cnc3cc(Cl)nn3c21 (relative stereo) [CPD0073131, (1rel-s,4rel-s)-N-[(1S)-1-[4-[(13rel-R)-4-chloro-13-(methoxymethyl)-13-methyl-2,3,7,10-tetrazatricyclo[7.4.0.0^2,6]trideca-1(9),3,5,7-tetraen-10-yl]phenyl]-2,2,2-trifluoro-ethyl]-1-imino-N-methyl-1-oxo-1λ^6-thiane-4-carboxamide] | 67 nM | 97 nM
18 | COC(C)c1c(Nc2ccc([C@H](N(C)C(=O)C3CCS(=O)(=O)CC3)C(F)(F)F)cc2)cnc2ccc(Cl)nc12 (stereo partly drawn) [CPD0019496, N-[(1S)-1-(4-{[6-chloro-4-(1-methoxyethyl)-1,5-naphthyridin-3-yl]amino}phenyl)-2,2,2-trifluoroethyl]-N-methyl-1,1-dioxo-1λ^6-thiane-4-carboxamide] | 112 nM | 22 nM
19 | CN=[S@]1(=O)CC[C@H](C(=O)N(C)[C@@H](c2ccc(N3CCCc4c3cnc3cc(Cl)nn43)cc2)C(F)(F)F)CC1 (relative stereo) [CPD0072531, (1rel-R,4rel-R)—N-[(1S)-1-(4-{4-chloro-2,3,7,10-tetraazatricyclo[7.4.0.0^2,6]trideca-1(9),3,5,7-tetraen-10-yl}phenyl)-2,2,2-trifluoroethyl]-N-methyl-1-(methylimino)-1-oxo-1λ^e-thiane-4-carboxamide] | 38 nM | 141 nM
20 | CN(C(=O)[C@@H]1CC(=O)N1)[C@@H](c1ccc(N2CCCc3c2cnc2cc(Cl)nn32)cc1)C(F)(F)F [CPD0075870, (2S)-N-[(1S)-1-[4-(4-chloro-2,3,7,10-tetrazatricyclo[7.4.0.0^2,6]trideca-1(9),3,5,7-tetraen-10-yl)phenyl]-2,2,2-trifluoro-ethyl]-N-methyl-4-oxo-azetidine-2-carboxamide] | 63 nM | 120 nM
